In PubChem BioAssay (NCI):
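Growth conditions: 96-well plates. Treatment: test compound, 48 hours, 5 concentrations. Analysis: linear interpolation between bracketing concentrations; unreached endpoints set to highest concentration. GI50 marks 50% less growth. At the TGI there is no net growth.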

Experiments:
Assay in all cases: NCI-60 cell line screen, 48 h
[1] = test system: 786-0 renal
[2] = test system: A498 renal
[3] = test system: A549 NSCLC
[4] = test system: ACHN renal
[5] = test system: BT-549 breast
[6] = test system: CAKI-1 renal
[7] = test system: CCRF-CEM leukemia
[8] = test system: COLO 205 colon
[9] = test system: DU-145 prostate
[10] = test system: EKVX NSCLC
[11] = test system: HCC-2998 colon
[12] = test system: HCT-116 colon
[13] = test system: HCT-15 colon
[14] = test system: HL-60(TB) leukemia
[15] = test system: HOP-62 NSCLC
[16] = test system: HOP-92 NSCLC
[17] = test system: HS 578T breast
[18] = test system: HT29 colon
[19] = test system: IGROV1 ovarian
[20] = test system: K-562 leukemia
[21] = test system: KM12 colon
[22] = test system: LOX IMVI melanoma
[23] = test system: M14 melanoma
[24] = test system: MALME-3M melanoma
[25] = test system: MCF7 breast
[26] = test system: MDA-MB-231 breast
[27] = test system: MDA-MB-435
[28] = test system: MDA-MB-468 breast
[29] = test system: MOLT-4 leukemia
[30] = test system: NCI-H226 lung
[31] = test system: NCI-H23 lung
[32] = test system: NCI-H460 lung
[33] = test system: NCI-H522 lung
[34] = test system: NCI/ADR-RES ovarian
[35] = test system: OVCAR-3 ovarian
[36] = test system: OVCAR-4 ovarian
[37] = test system: OVCAR-5 ovarian
[38] = test system: OVCAR-8 ovarian
[39] = test system: PC-3 prostate
[40] = test system: RPMI-8226 leukemia
[41] = test system: RXF 393 renal
[42] = test system: SF-268 CNS
[43] = test system: SF-295 CNS
[44] = test system: SF-539 CNS
[45] = test system: SK-MEL-2 melanoma
[46] = test system: SK-MEL-28 melanoma
[47] = test system: SK-MEL-5 melanoma
[48] = test system: SK-OV-3 ovarian
[49] = test system: SN12C renal
[50] = test system: SNB-19 CNS
[51] = test system: SNB-75 CNS
[52] = test system: SR leukemia
[53] = test system: SW-620 colon
[54] = test system: T-47D breast
[55] = test system: TK-10 renal
[56] = test system: U251 CNS
[57] = test system: UACC-257 melanoma
[58] = test system: UACC-62 melanoma
[59] = test system: UO-31 renal

For `COc1cc2c3c(n(CCCn4ccnc4)c(=O)c2cc1OC)-c1nc2c(cc1C3=O)OCO2`, which GI50 [1] is on record?
The GI50 was 105 nM.

What about the GI50 [2] of the same compound?
Its GI50 is over 100 µM.

What about the TGI [2] of the same compound?
The TGI was over 100 µM.

And the GI50 [3]?
Its GI50 is 3.31 µM.

What about the TGI [3] of the same compound?
The TGI was over 100 µM.

What about the GI50 [4] of the same compound?
The GI50 was 38.9 nM.

What about the GI50 [5] of the same compound?
Its GI50 is 356 nM.

What about the TGI [5] of the same compound?
The TGI was 26.3 µM.

And the GI50 [6]?
Its GI50 is 40 nM.

What about the TGI [6] of the same compound?
The TGI was over 100 µM.

And the GI50 [7]?
The GI50 was 28 nM.

And the GI50 [8]?
The GI50 was 12.6 µM.

And the TGI [8]?
Its TGI is over 100 µM.

What about the GI50 [9] of the same compound?
Its GI50 is 61.6 nM.

And the TGI [9]?
Its TGI is over 100 µM.

And the GI50 [10]?
Its GI50 is over 66.4 µM.

What about the TGI [10] of the same compound?
Its TGI is over 100 µM.

And the GI50 [11]?
The GI50 was 19.4 µM.

And the TGI [11]?
The TGI was over 100 µM.

And the GI50 [12]?
Its GI50 is 169 nM.

And the TGI [12]?
The TGI was over 100 µM.

And the GI50 [13]?
The GI50 was 13.1 µM.

What about the TGI [13] of the same compound?
The TGI was over 100 µM.

What about the GI50 [14] of the same compound?
Its GI50 is 48.5 nM.

What about the TGI [14] of the same compound?
Its TGI is over 100 µM.

And the GI50 [15]?
The GI50 was 33.9 nM.

And the TGI [15]?
Its TGI is over 100 µM.

What about the GI50 [16] of the same compound?
Its GI50 is over 47.1 µM.

What about the TGI [16] of the same compound?
Its TGI is over 100 µM.

And the GI50 [17]?
The GI50 was over 100 µM.

What about the TGI [17] of the same compound?
The TGI was over 100 µM.

What about the GI50 [18] of the same compound?
The GI50 was 637 nM.

What about the TGI [18] of the same compound?
The TGI was over 100 µM.

What about the GI50 [19] of the same compound?
Its GI50 is over 52 µM.

And the TGI [19]?
Its TGI is over 100 µM.

And the GI50 [20]?
The GI50 was 74.2 nM.

What about the TGI [20] of the same compound?
Its TGI is over 100 µM.

And the GI50 [21]?
The GI50 was over 100 µM.

And the TGI [21]?
The TGI was over 100 µM.

And the GI50 [22]?
Its GI50 is 44.8 nM.

And the TGI [22]?
The TGI was 5.83 µM.

What about the GI50 [23] of the same compound?
Its GI50 is 55.4 nM.

What about the TGI [23] of the same compound?
The TGI was over 69.3 µM.

What about the GI50 [24] of the same compound?
Its GI50 is 13.1 µM.

What about the TGI [24] of the same compound?
Its TGI is over 100 µM.

What about the GI50 [25] of the same compound?
Its GI50 is 24.7 nM.

And the TGI [25]?
Its TGI is 16.3 µM.

What about the GI50 [26] of the same compound?
Its GI50 is 45.1 µM.

What about the TGI [26] of the same compound?
The TGI was over 100 µM.

And the GI50 [27]?
Its GI50 is 4.7 µM.

What about the TGI [27] of the same compound?
The TGI was over 100 µM.

And the GI50 [28]?
Its GI50 is 28 nM.

And the TGI [28]?
Its TGI is 115 nM.

What about the GI50 [29] of the same compound?
The GI50 was 35.6 nM.

And the TGI [29]?
The TGI was over 100 µM.

What about the GI50 [30] of the same compound?
Its GI50 is 124 nM.

What about the TGI [30] of the same compound?
The TGI was over 100 µM.

What about the GI50 [31] of the same compound?
The GI50 was 44.2 nM.

What about the TGI [31] of the same compound?
The TGI was 11.3 µM.

What about the GI50 [32] of the same compound?
The GI50 was 32.5 nM.

And the TGI [32]?
The TGI was over 36.4 µM.

And the GI50 [33]?
The GI50 was 1070 nM.

And the TGI [33]?
The TGI was 37.6 µM.

What about the GI50 [34] of the same compound?
The GI50 was over 100 µM.

What about the TGI [34] of the same compound?
The TGI was over 100 µM.

And the GI50 [35]?
The GI50 was 38.5 µM.

And the TGI [35]?
Its TGI is over 100 µM.

What about the GI50 [36] of the same compound?
The GI50 was over 100 µM.

What about the TGI [36] of the same compound?
The TGI was over 100 µM.

What about the GI50 [37] of the same compound?
Its GI50 is over 36.7 µM.

And the TGI [37]?
The TGI was over 100 µM.

What about the GI50 [38] of the same compound?
Its GI50 is 803 nM.

What about the TGI [38] of the same compound?
Its TGI is over 100 µM.

What about the GI50 [39] of the same compound?
Its GI50 is 32.2 µM.

What about the TGI [39] of the same compound?
Its TGI is over 100 µM.

And the GI50 [40]?
Its GI50 is 852 nM.

And the TGI [40]?
The TGI was over 100 µM.

What about the GI50 [41] of the same compound?
The GI50 was 335 nM.

And the TGI [41]?
The TGI was over 100 µM.

What about the GI50 [42] of the same compound?
Its GI50 is 76.9 nM.

And the TGI [42]?
Its TGI is over 100 µM.

What about the GI50 [43] of the same compound?
The GI50 was 35.1 nM.

What about the TGI [43] of the same compound?
Its TGI is 12.8 µM.

And the GI50 [44]?
The GI50 was 36.3 nM.

What about the TGI [44] of the same compound?
The TGI was 525 nM.

And the GI50 [45]?
The GI50 was over 100 µM.

What about the TGI [45] of the same compound?
The TGI was over 100 µM.

What about the GI50 [46] of the same compound?
The GI50 was over 100 µM.

What about the TGI [46] of the same compound?
The TGI was over 100 µM.

And the GI50 [47]?
The GI50 was 70 nM.

And the TGI [47]?
Its TGI is 4.63 µM.

And the GI50 [48]?
The GI50 was 45.9 nM.

And the TGI [48]?
Its TGI is over 100 µM.

What about the GI50 [49] of the same compound?
The GI50 was 134 nM.

What about the TGI [49] of the same compound?
Its TGI is over 100 µM.

And the GI50 [50]?
Its GI50 is 68.5 nM.

And the TGI [50]?
Its TGI is over 100 µM.

What about the GI50 [51] of the same compound?
Its GI50 is 30 nM.

And the TGI [51]?
The TGI was over 100 µM.

What about the GI50 [52] of the same compound?
Its GI50 is 27.4 nM.

And the TGI [52]?
The TGI was 24.5 µM.

What about the GI50 [53] of the same compound?
The GI50 was 207 nM.

What about the TGI [53] of the same compound?
The TGI was over 100 µM.

And the GI50 [54]?
Its GI50 is 37.6 nM.

And the TGI [54]?
The TGI was over 100 µM.

And the GI50 [55]?
The GI50 was over 100 µM.

What about the TGI [55] of the same compound?
Its TGI is over 100 µM.

What about the GI50 [56] of the same compound?
The GI50 was 62.1 nM.

And the TGI [56]?
Its TGI is over 100 µM.

What about the TGI [57] of the same compound?
The TGI was over 100 µM.

What about the GI50 [58] of the same compound?
Its GI50 is 35.9 nM.

And the TGI [58]?
Its TGI is over 100 µM.

What about the GI50 [59] of the same compound?
The GI50 was 197 nM.

And the TGI [59]?
Its TGI is over 100 µM.
